Measurements: patent US20210078972A1, “QUINOLINE OR QUINAZOLINE COMPOUND AND APPLICATION THEREOF” (HAIHE BIOPHARMA CO., LTD., priority 2018, published 2021)

Assays:
[1] = system: MV4-11 cells; assay: MV4-11 cell proliferation, CCK-8; type: cell-based; conditions: Homo sapiens, 72 h, read-out: IC50 of inhibition of proliferation of MV4-11 cells
Description: The inhibitory effects of the compounds on the proliferation of MV4-11 cells were detected by a CCK-8 cell counting kit (Dojindo). The specific steps are as follows: MV4-11 cells in the logarithmic phase were seeded into a 96-well culture plate at a suitable density for 90 μL per well. After overnight cultivation, the compounds at different concentrations were added to act for 72 hr, and a solvent control group was set (negative control). After 72 h of the compounds acting on the cells, the effects of the compounds on cell proliferation were detected using the CCK-8 cell counting kit (Dojindo). 10 μL of CCK-8 reagent was added to each well and the plate was placed in an incubator at 37° C. for 2-4 hours. After that, a full-wavelength microplate enzyme-labeling instrument SpectraMax 190 was used to read with a measurement wavelength of 450 nm.
The inhibition rate (%) of the compound on tumor cell growth was calculated by the following formula:
Inhibition rate (%)=(OD control well−OD administration well)/OD control well×100%
The IC50 values were obtained by regression with the four-parameter method using the software attached to the enzyme-labeling instrument.

[2] = biological target: T1, AXL kinase (Homo sapiens, UniProt P30530); assay: AXL kinase inhibition, Z'-LYTE FRET; type: biochemical; conditions: ATP 50 μM
T1 construct: purchased eurofins 14-500
T1 sequence (P30530 473-894 limits assumed): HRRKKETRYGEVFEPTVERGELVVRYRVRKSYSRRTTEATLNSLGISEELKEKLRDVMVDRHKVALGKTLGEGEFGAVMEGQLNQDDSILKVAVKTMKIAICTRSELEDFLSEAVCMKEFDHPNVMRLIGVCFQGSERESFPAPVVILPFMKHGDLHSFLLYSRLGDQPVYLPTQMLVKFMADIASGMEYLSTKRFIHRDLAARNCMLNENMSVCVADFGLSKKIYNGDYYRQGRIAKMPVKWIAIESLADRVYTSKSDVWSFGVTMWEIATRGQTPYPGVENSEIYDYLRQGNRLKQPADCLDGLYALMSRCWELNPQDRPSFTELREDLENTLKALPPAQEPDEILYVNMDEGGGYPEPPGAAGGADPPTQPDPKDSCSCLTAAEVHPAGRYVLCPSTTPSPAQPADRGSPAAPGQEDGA
From the text: Detection of the activity of kinase: the inhibitory activities of the compounds against AXL kinase (eurofins, 14-500) were detected through a second-order reaction by the Z′-LYTE™ technology (detected by fluorescence, enzyme-coupled form, based on the difference in a sensitivity of phosphorylated and non-phosphorylated polypeptides to proteolytic cleavage), based on the principle of fluorescence resonance energy transfer (FRET), using Z′-LYTE™ FRET peptide substrate (Z′-LYTE™ Tyrosine 6 Peptide Substrate, Invitrogen, PV4122).
Enzymatic reaction: To a 384-well plate was added 5 μL of enzyme-substrate system (50 mM HEPES, pH 6.5, 0.01% BRU-35, 10 mM MgC2, 1 mM EGTA, 0.02% NaNA), and 5 nL of a compound (concentration gradient) was transferred thereto using an echo520 ultramicro-liquid pipetting system. After the plate was shaken at room temperature for 10-20 min, 25 nL of ATP (a final concentration of 50 μM) was transferred thereto using the echo520 ultramicro-liquid pipetting system. After shaking and well mixing, the mixture was centrifuged and reacted at 30° C. in the dark for 1.5 h.
The data analysis method is as follows:
Phosphorylation ratio=1−{(emission ratio×F100%−C100%)/[C0%−C100%+emission ratio×(F100%−F0%)]}×100;
Inhibition rate=100×(1−compound phosphorylation ratio/negative control phosphorylation ratio).
The IC50 values were calculated by GraphPad Prism software.

SMILES | IC50 [1] [nM] | IC50 [2] [nM]
CC(C)(C)c1cc(NC(=O)Nc2ccc(-c3cn4c(n3)sc3cc(OCCN5CCOCC5)ccc34)cc2)no1 [AC220, reference compound] | < 4 | –
COc1cc2ncnc(Oc3ccc(NC(=O)c4c(C)n(C)c5ccc(OC(F)(F)F)cc5c4=O)cc3F)c2cc1OCCCN1CCOCC1 [TL-236, N-(3-fluoro-4-((7-methoxy-6-(3-morpholinopropoxy)quinazolin-4-yl)oxy)phenyl)-1,2-dim ethyl-4-oxo-6-(trifluoromethoxy)-1,4-dihydroquinoline-3-carboxamide] | – | 2.4
COc1cc2c(Oc3ccc(NC(=O)c4c(C)n(C)c5ccc(OC(F)(F)F)cc5c4=O)cc3F)ncnc2cc1OCCN1CCCC1 [TL-231, N-(3-fluoro-4-((6-methoxy-7-(2-(pyrrolidin-1-yl)ethoxy)quinazolin-4-yl)oxy)phenyl)-1,2-dimethyl-4-oxo-6-(trifluoromethoxy)-1,4-dihydroquinoline-3-carboxamide] | – | 2.3

Further lines, results first:

IC50 [1] [nM] | IC50 [2] [nM] | SMILES
– | 1.9 | COc1cc2c(Oc3ccc(NC(=O)c4c(C)n(C)c5ccc(OC(F)(F)F)cc5c4=O)cc3F)ncnc2cc1OCCN(C)C [TL-233, N-(4-((7-(2-(dimethylamino)ethoxy)-6-methoxyquinazolin-4-yl)oxy)-3-fluorophenyl)-1,2-dimethyl-4-oxo-6-(trifluoromethoxy)-1,4-dihydroquinoline-3-carboxamide]
– | 59.4 | COc1cc2c(Oc3ccc(NC(=O)c4c(C)n(C)c5ccc(OC(F)(F)F)cc5c4=O)cc3F)ncnc2cc1OCCC(C)C [TL-230, N-(3-fluoro-4-((7-(isopentyloxy)-6-methoxyquinazolin-4-yl)oxy)phenyl)-1,2-dimethyl-4-oxo-6-(trifluoromethoxy)-1,4-dihydroquinoline-3-carboxamide]
– | 6.1 | CCCOc1cc2ncnc(Oc3ccc(NC(=O)c4c(C)n(C)c5ccc(OC(F)(F)F)cc5c4=O)cc3F)c2cc1OC [TL-240, N-(3-fluoro-4-((6-methoxy-7-propoxyquinazolin-4-yl)oxy)phenyl)-1,2-dimethyl-4-oxo-6-(trifluoromethoxy)-1,4-dihydroquinoline-3-carboxamide]
– | 2.6 | CCOc1cc2ncnc(Oc3ccc(NC(=O)c4c(C)n(C)c5ccc(OC(F)(F)F)cc5c4=O)cc3F)c2cc1OC [TL-241, N-(4-((7-ethoxy-6-methoxyquinazolin-4-yl)oxy)-3-fluorophenyl)-1,2-dimethyl-4-oxo-6-(trifluoromethoxy)-1,4-dihydroquinoline-3-carboxamide]
